Measured values as given in patent US20240383882A1 (Ecstasy LLC, priority 2020, published 2024).
Where a name gives a salt, the structure may show the parent alone.

test system: male C57BL/6 mice; assay: 55° C. warm-water tail-flick test (antinociception); format: in vivo; settings: Mus musculus, sc, 0.5 h, compounds of Table I; s.c.; 30 min; 55° C. water; configuration tested as in Table II; read-out: ED50 (mg/kg) at 30 min on C57BL/6 mice in Warm-water Tail-flick Test
Protocol: Antinociception was assessed using the 55° C. warm-water tail-flick test. The latency to the first sign of a rapid tail flick was taken as the behavioral endpoint. Each mouse was first tested for baseline latency by immersing its tail in the water and recording the time to response. Mice not responding within 2 secs were excluded from further testing. Responsive mice were then s.c. administered the test compound and tested for antinociception at 30 min, 60 min, 90 min, and 120 min time points afterward. Antinociception was calculated using the following formula: percentage of antinociception=100×(test latency−control latency)/(20−control latency).
The following new compounds were also made and tested to determine the half maximal possible effective dose, or ED50 (mg/kg), in mice, using one of: the warm water tail-flick test as in Table II, spared nerve injury, chronic constriction injury, or Complete Freund's adjuvant induced inflammatory pain. The symbols in the last column are: + indicates ED 50>50 mg/kg; ++ indicates ED 50 is less than or equal to 30 mg/kg.

| Compound | ED50 [mg/kg] |
| --- | --- |
| Cc1ccc(C(C)(C)N2CCC(CCc3cccs3)(COC(F)F)C2)cn1 (single isomer, unassigned) [Compound 82, (R or S)-5-(2-(3-((difluoromethoxy)methyl)-3-(2-(thiophen-2-yl)ethyl)pyrrolidin-1-yl)propan-2-yl)-2-methylpyridine citarte] | ≤ 30 |
| CCOCC1(Cn2cnc3cnccc32)CCN(C(C)(C)c2ccc(C)nc2)C1 (single isomer, unassigned) [Compound 85, (R or S)-1-((3-(ethoxymethyl)-1-(2-(6-methylpyridin-3-yl)propan-2-yl)pyrrolidin-3-yl)methyl)-1H-imidazo[4,5-c]pyridine citrate] | ≤ 30 |
| CCOC(c1ccccn1)C1(CCc2cccs2)CCN(C(C)(C)c2ccc(C)nc2)C1 (single isomer, unassigned) [Compound 86, 5-(2-((S or R)-3-((R& S)-ethoxy(pyridin-2-yl)methyl)-3-(2-(thiophen-2-yl)ethyl)pyrrolidin-1-yl)propan-2-yl)-2-methylpyridine citrate] | ≤ 30 |
| Cc1ccc(C(C)(C)N2CCC(CCc3cccs3)(C3OCCc4ccccc43)C2)cn1 (single isomer, unassigned) [Compound 87, 5-(2-((R or S)-3-((S or R)-isochroman-1-yl)-3-(2-(thiophen-2-yl)ethyl)pyrrolidin-1-yl)propan-2-yl)-2-methylpyridine citrate] | ≤ 30 |
| CCC(C)(c1ccc(C)nc1)N1CCC(CCc2cccs2)(C2OCCc3ccccc32)C1 (single isomer, unassigned) [Compound 89, 5-(2-((R or S)-3-((S or R)-isochroman-1-yl)-3-(2-(thiophen-2-yl)ethyl)pyrrolidin-1-yl)butan-2-yl)-2-methylpyridine citrate] | ≤ 30 |
| Cc1ccc(C(C)(C)N2CCC(CCc3ccc(F)s3)(C3OCCc4ccccc43)C2)cn1 (single isomer, unassigned) [Compound 94, 5-(2-((R or S)-3-(2-(5-fluorothiophen-2-yl)ethyl)-3-((R or S)-isochroman-1-yl)pyrrolidin-1-yl)propan-2-yl)-2-methylpyridine citrate] | ≤ 30 |
| CCOC(c1ccccc1)C1(CCc2ccc(F)s2)CCN(C(C)(C)c2ccc(C)nc2)C1 (single isomer, unassigned) [Compound 97, 5-(2-((R or S)-3-((R or S)-ethoxy(phenyl)methyl)-3-(2-(5-fluorothiophen-2-yl)ethyl)pyrrolidin-1-yl)propan-2-yl)-2-methylpyridine citrate] | ≤ 30 |
| CCOCC1(CCn2c(=O)[nH]c3cc(F)c(F)cc32)CCN(C(C)(C)c2ccc(C)nc2)C1 (single isomer, unassigned) [Compound 99] | ≤ 30 |
| Cc1ccc(C(C)(C)N2CCC(CCc3ccc(F)s3)(CN3CCOCC3)C2)cn1 (single isomer, unassigned) [Compound 106] | ≤ 30 |
| Cc1ccc(C(C)(C)N2CCC(CCc3ccc(F)s3)(c3nccn3C)C2)cn1 (single isomer, unassigned) [Compound 114] | ≤ 30 |
| Cc1ccc(C(C)(C)N2CCC(CCc3ccc(F)s3)(CNS(=O)(=O)N(C)C)C2)cn1 (single isomer, unassigned) [Compound 121] | ≤ 30 |
| Cc1ccc(S(=O)(=O)NCC2(CCc3cc(C)c(C)s3)CCN(C(C)(C)c3ccc(C)nc3)C2)cc1 (single isomer, unassigned) [Compound 126] | ≤ 30 |

same assay, conditions: Mus musculus; half maximal effective dose in mice; using one of: warm water tail-flick test, spared nerve injury, chronic constriction injury, or Complete Freund's adjuvant induced inflammatory pain (not stated which per compound); read-out: Biological Activity (ED50)

| Compound | ED50 [mg/kg] |
| --- | --- |
| CC(C)(c1ccccn1)N1CC[C@@](CCc2ccc(C#N)cc2)(C(O)c2ccccc2)C1 (single isomer, unassigned) [Compound 57] | ≤ 30 |
| CC(O)[C@@]1(CCc2ccc(C#N)cc2)CCN(C(c2ccc(F)cc2)c2cccnc2)C1 (single isomer, unassigned) [Compound 58] | > 50 |
| CC(C)C(O)[C@]1(CCc2ccc(C#N)cc2)CCN(C(C)(C)c2ccccn2)C1 (single isomer, unassigned) [Compound 61] | > 50 |
| CC(C)(c1ccccn1)N1CC[C@@](CCc2ccc(S(C)(=O)=O)cc2)(C2CCCO2)C1 (single isomer, unassigned) [Compound 67] | > 50 |
| COC[C@@]1(CCc2ccccc2)CCN(N(C)c2ccc(C)nc2)C1 (single isomer, unassigned) [Compound 69] | > 50 |
| COc1ccc(CN2CC[C@@](CCc3ccc(C#N)cc3)(C(O)C(F)(F)F)C2)cn1 (single isomer, unassigned) [Compound 70] | > 50 |
| CC(C)(O)[C@@]1(CCc2ccc(C#N)cc2)CCN(C(c2ccc(F)cc2)c2cccnc2)C1 (single isomer, unassigned) [Compound 71] | > 50 |
| N#Cc1ccc(CC[C@]2(COCc3ccccc3)CCN(C(c3cccnc3)c3cccnc3)C2)cc1 (single isomer, unassigned) [Compound 72] | > 50 |
| CC(C)(c1ccccn1)N1CC[C@](COCc2ccc(C#N)cc2)(C2CCCO2)C1 (single isomer, unassigned) [Compound 74] | > 50 |
| Cc1ccc(C(C)(C)N2CC[C@@](CCc3ccc(F)cc3)(C(O)C(F)(F)F)C2)cn1 (single isomer, unassigned) [Compound 78] | ≤ 30 |
| CC(C)(c1ccc(Cl)cc1)N1CC[C@](CCc2ccc(S(C)(=O)=O)cc2)(C(O)C(F)(F)F)C1 (single isomer, unassigned) [Compound 98, (R or S)-1-((S)-1-(2-(4-chlorophenyl)propan-2-yl)-3-(4-(methylsulfonyl)phenethyl)pyrrolidin-3-yl)-2,2,2-trifluoroethan-1-ol] | ≤ 30 |
| CC(C)(c1ccccn1)N1CC[C@@](CCc2ccc(C#N)c(F)c2)(C(O)C(F)(F)F)C1 (single isomer, unassigned) [Compound 103, 2-fluoro-4-(2-((R)-1-(2-(pyridin-2-yl)propan-2-yl)-3-((R or S)-2,2,2-trifluoro-1-hydroxyethyl)pyrrolidin-3-yl)ethyl) benzonitrile] | > 50 |
| CC(C)(c1ccccn1)N1CC[C@@](CCc2ccc(C#N)cc2F)(C(O)C(F)(F)F)C1 (single isomer, unassigned) [Compound 116, 3-fluoro-4-(2-((R)-1-(2-(pyridin-2-yl)propan-2-yl)-3-((R or S)-2,2,2-trifluoro-1-hydroxyethyl)pyrrolidin-3-yl)ethyl) benzonitrile] | > 50 |
| CC(C)(c1ccccn1)N1CC[C@@](CCc2ccc(C#N)cn2)(C(O)C(F)(F)F)C1 (single isomer, unassigned) [Compound 120, 6-(2-((R)-1-(2-(pyridin-2-yl)propan-2-yl)-3-((R or S)-2,2,2-trifluoro-1-hydroxyethyl)pyrrolidin-3-yl)ethyl) nicotinonitrile] | > 50 |
| CC(C)(c1ccccn1)N1CC[C@@](CCc2cccc(C#N)c2)(C(O)C(F)(F)F)C1 (single isomer, unassigned) [Compound 134, 3-(2-((R)-1-(2-(pyridin-2-yl)propan-2-yl)-3-((R or S)-2,2,2-trifluoro-1-hydroxyethyl)pyrrolidin-3-yl)ethyl) benzonitrile] | > 50 |
| CC(C)(c1ccccn1)N1CC[C@@](CCc2ccccc2C#N)(C(O)C(F)(F)F)C1 (single isomer, unassigned) [Compound 135, 2-(2-((R)-1-(2-(pyridin-2-yl)propan-2-yl)-3-((R or S)-2,2,2-trifluoro-1-hydroxyethyl)pyrrolidin-3-yl)ethyl) benzonitrile] | > 50 |
